Experimental findings from patent US20100029696A1, “INDOLYLAMINO QUINAZOLINE DERIVATIVES AS ANTITUMOR AGENTS” (priority 2005, published 2010) are described below.

The target of one assay is T1, EGFR tyrosine kinase (Homo sapiens, UniProt P00533).
T1 construct: Recombinant intracellular fragments of EGFR, erbB2 and erbB4; made in house; host or cells: baculovirus/Sf21 insect cells
The assay can be described thus: Protein tyrosine kinase phosphorylation assay, Test (a), EGFR. The note with it: ATP at Km concentration; read-out: IC50 Test (a): Inhibition of EGFR tyrosine kinase protein phosphorylation. In kind it is biochemical. As for the experimental part: (§1) This test measures the ability of a test compound to inhibit the phosphorylation of a tyrosine containing polypeptide substrate by EGFR, erbB2 and erbB4 tyrosine kinase enzyme.
(§2) Recombinant intracellular fragments of EGFR, erbB2 and erbB4 (accession numbers X00588, X03363 and L07868 respectively) were cloned and expressed in the baculovirus/Sf21 system. […]
(§3) Constitutive kinase activity of these recombinant proteins was determined by their ability to phosphorylate a synthetic peptide (made up of a random co-polymer of Glutamic Acid, Alanine and Tyrosine in the ratio of 6:3:1). […]
(§4) The immobilised phospho-peptide product of the reaction was detected by immunological methods. […] After further washing, HRP activity in each well of the plate was measured colorimetrically using 22′-Azino-di-[3-ethylbenzthiazoline sulfonate (6)]diammonium salt crystals (ABTS™ from Roche) as a substrate.
(§5) Quantification of colour development and thus enzyme activity was achieved by the measurement of absorbance at 405 nm on a Molecular Devices ThermoMax microplate reader. Kinase inhibition for a given compound was expressed as an IC50 value. […] The range of phosphorylation was calculated from the positive (vehicle plus ATP) and negative (vehicle minus ATP) control values.

In a further assay the target is T2, erbB2 tyrosine kinase (Homo sapiens, UniProt P04626).
T2 construct: Recombinant intracellular fragments of EGFR, erbB2 and erbB4; made in house; host or cells: baculovirus/Sf21 insect cells
T2 sequence (P04626 676-1255 limits assumed): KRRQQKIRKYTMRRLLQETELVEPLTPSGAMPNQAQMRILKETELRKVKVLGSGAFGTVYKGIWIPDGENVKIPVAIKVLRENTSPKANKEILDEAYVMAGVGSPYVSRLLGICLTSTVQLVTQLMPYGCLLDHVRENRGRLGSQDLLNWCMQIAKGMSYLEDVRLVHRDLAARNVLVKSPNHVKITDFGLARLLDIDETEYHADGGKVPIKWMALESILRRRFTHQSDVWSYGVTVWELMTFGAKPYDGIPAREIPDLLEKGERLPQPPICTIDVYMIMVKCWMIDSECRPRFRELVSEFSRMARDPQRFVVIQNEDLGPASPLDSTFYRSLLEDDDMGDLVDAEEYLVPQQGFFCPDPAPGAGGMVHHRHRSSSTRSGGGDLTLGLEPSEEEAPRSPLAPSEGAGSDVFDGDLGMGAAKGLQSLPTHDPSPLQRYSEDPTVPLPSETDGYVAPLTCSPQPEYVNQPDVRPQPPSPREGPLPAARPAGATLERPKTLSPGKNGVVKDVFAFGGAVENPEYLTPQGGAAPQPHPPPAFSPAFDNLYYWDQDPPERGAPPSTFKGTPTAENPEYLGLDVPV
Kind of assay: Protein tyrosine kinase phosphorylation assay, Test (a), erbB2. Format: biochemical. The note with it: ATP at Km concentration; read-out: IC50 Test (a): Inhibition of erbB2 tyrosine kinase protein phosphorylation. As for the experimental part:
as §1, §2, §3, §4, §5

The target in assay [1] is T3, erbB2 in MCF7 derived cell line (Clone 24 cells) (Homo sapiens, UniProt P04626).
T3 construct: a cell line that overexpresses full length wild type erbB2 protein; expressed in transfected cells; host or cells: MCF7 (breast carcinoma) cells, 'Clone 24'
T3 sequence (P04626 23-1255): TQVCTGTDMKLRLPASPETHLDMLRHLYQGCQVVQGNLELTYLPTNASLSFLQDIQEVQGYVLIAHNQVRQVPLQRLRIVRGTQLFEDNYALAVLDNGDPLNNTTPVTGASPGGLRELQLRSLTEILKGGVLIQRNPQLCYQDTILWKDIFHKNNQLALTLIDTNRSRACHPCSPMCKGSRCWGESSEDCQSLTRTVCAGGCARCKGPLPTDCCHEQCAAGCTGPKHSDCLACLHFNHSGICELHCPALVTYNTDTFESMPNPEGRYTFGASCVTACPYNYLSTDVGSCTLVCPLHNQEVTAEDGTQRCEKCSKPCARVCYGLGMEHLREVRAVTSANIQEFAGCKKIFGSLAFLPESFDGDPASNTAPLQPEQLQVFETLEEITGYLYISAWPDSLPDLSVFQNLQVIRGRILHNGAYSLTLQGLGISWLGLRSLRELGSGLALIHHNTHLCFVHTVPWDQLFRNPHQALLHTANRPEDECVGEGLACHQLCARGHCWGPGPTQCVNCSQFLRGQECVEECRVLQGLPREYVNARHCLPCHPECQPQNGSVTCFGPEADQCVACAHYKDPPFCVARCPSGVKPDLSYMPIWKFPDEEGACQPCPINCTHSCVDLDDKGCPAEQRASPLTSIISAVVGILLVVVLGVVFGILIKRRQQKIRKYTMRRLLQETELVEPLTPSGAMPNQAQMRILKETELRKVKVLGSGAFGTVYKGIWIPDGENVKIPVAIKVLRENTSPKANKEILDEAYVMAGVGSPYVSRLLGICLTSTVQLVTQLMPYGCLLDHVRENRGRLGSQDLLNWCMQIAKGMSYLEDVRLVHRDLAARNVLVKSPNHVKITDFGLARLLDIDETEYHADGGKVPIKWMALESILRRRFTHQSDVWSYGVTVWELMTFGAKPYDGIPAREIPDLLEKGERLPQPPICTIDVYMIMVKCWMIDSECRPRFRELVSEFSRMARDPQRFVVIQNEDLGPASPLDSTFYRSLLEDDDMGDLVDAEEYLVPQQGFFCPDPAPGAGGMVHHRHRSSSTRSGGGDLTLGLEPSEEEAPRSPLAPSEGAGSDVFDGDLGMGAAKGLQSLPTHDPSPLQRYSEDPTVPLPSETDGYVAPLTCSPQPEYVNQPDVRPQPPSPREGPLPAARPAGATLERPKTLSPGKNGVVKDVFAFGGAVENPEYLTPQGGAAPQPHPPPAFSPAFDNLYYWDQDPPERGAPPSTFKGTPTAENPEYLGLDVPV
Kind of assay: Clone 24 phospho-erbB2 cell assay, Test (c). In kind it is cell-based. The note with it: MCF7 derived Clone 24 cells, 4 hours; read-out: IC50 Test (c): Inhibition of erbB2 tyrosine kinase protein phosphorylation. As for the experimental part: This immunofluorescence end point assay measures the ability of a test compound to inhibit the phosphorylation of erbB2 in a MCF7 (breast carcinoma) derived cell line which was generated by transfecting MCF7 cells with the full length erbB2 gene using standard methods to give a cell line that overexpresses full length wild type erbB2 protein (hereinafter ‘Clone 24’ cells).
Clone 24 cells were cultured in Growth Medium (phenol red free Dulbecco's modified Eagle's medium (DMEM) containing 10% foetal bovine serum, 2 mM glutamine and 1.2 mg/ml G418) in a 7.5% CO2 air incubator at 37° C. […] Cell density was measured using a haemocytometer and viability was calculated using Trypan Blue solution before being further diluted in Growth Medium and seeded at a density of 1×10^4 cells per well (in 100 μl) into clear bottomed 96 well plates (Packard, No. 6005182). […]
Immunostaining was performed at room temperature. […] Plates were analysed within six hours of completing the immunostaining.
The Fluorescence signal is each well was measured using an Acumen Explorer Instrument (Acumen Bioscience Ltd.), a plate reader that can be used to rapidly quantitate features of images generated by laser-scanning. […]

T1 sequence (P00533 669-1210 limits assumed): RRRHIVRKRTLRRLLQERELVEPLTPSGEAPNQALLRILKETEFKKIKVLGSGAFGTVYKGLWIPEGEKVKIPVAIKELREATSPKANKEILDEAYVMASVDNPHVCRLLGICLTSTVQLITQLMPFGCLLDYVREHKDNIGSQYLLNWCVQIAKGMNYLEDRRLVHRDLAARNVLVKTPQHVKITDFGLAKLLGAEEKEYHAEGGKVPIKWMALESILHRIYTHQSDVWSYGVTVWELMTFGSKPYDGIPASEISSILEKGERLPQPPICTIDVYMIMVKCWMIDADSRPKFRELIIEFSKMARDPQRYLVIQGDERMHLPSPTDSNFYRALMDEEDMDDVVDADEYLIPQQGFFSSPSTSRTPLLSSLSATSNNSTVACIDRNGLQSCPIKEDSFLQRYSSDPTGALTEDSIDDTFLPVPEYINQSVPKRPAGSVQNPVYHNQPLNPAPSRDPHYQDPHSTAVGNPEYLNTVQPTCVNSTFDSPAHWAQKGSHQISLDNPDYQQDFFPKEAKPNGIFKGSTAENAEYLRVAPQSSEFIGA

As usually defined, the IC50 is the concentration that inhibits the measured activity by half. As for `O=C(CO)N1CCCC[C@@H]1COc1cccc2ncnc(Nc3ccc4c(ccn4Cc4cscn4)c3)c12` [Example 2, 2-Oxo-2-((2R)-2-{[(4-{[1-(1,3-thiazol-4-ylmethyl)-1H-indol-5-yl]amino}quinazolin-5-yl)oxy]methyl}piperidin-1-yl)ethanol], the figures for the IC50 (at EGFR tyrosine kinase; on erbB2 tyrosine kinase; in assay [1]) were 1 nM, 38 nM and 35 nM, respectively.

Regarding `O=C(CO)N1CCCC[C@@H]1COc1cccc2ncnc(Nc3ccc4c(ccn4Cc4ccccn4)c3)c12` [Example 1, 2-Oxo-2-((2R)-2-{[(4-{[1-(pyridin-2-ylmethyl)-1H-indol-5-yl]amino}quinazolin-5-yl)oxy]methyl}piperidin-1-yl)ethanol], the IC50 at EGFR tyrosine kinase and on erbB2 tyrosine kinase was 1 nM throughout.
